Earlier results, collected in patent publication US11686722B2, “Compositions and methods to detect molecules in a sample” (Infusense Corp., priority 2016, dated 2023).
Like-named read-outs stand apart in the source and are kept apart here.

How the values were obtained:
[1] = neutral pH, shake-flask methodology
[2] = neutral pH, reverse-phase HPLC estimation

Row | Compound | time until metabolite appears in the urine, typical (following a dose of THC, urine) [h] | time until metabolite appears in the urine, longest (following a dose of THC, urine, can take as long as) [h] | clearance half-life (in vivo) | detectability in urine (urine) | n-octanol/water partition coefficient (KOW) [1] | n-octanol/water partition coefficient (KOW) [2]
1 | CCCCCc1cc(O)c2c(c1)OC(C)(C)C1CCC(C(=O)O)=CC21 (stereo not drawn) [11-nor-9-carboxy-THC, 11-nor-9-carboxy-tetrahydrocannabinol] | ≤ 1 | ≤ 4 |  |  |  | 
2 | CCCCCc1cc(O)c2c(c1)OC(C)(C)[C@@H]1CCC(C)=C[C@@H]21 [THC, Δ^9-tetrahydrocannabinol] |  |  | less than 30 minutes | not detectable in urine | 6000 | 9,440,000
